The record followed here is US8716326B2, “Isoindolinone derivatives, preparation method thereof and a pharmaceutical composition comprising same” (Korea Research Institute of Chemical Technology, priority 2009, dated 2014).

Each structure is given as a SMILES string.

The subject of this assay is Runx2. Put plainly: Runx2 activity, 6xOSE2-Luc luciferase reporter in transfected C2C12 cells. It counts as cell-based, Mouse. The note with it: 24 hrs; for fold induction at 2.5 µM / fold induction at 5 µM / fold induction at 10 µM / fold induction at 20 µM: Mus musculus, read-out: luciferase activity relative to control set as 1. The gist of the method:
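Compound exposure of 24 h at 2.5, 5.0, 10 and 20 μM, in 5% FBS DMEM, was applied to transfected C2C12 cells with an OSE2 hexamer-driven luciferase construct reporting Runx2 activity. Read-out: dual-luciferase signal in cell lysates, normalised to equal-volume DMSO control (=1).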
A general note: In a reporter assay the amount or activity of a reporter protein is the signal.

Consider `COc1ccc(-c2cccc3c2CN(CCCCCC(=O)NO)C3=O)cc1OC` [Example 40, N-hydroxy-6-(4-(3,4-dimethoxyphenyl)-1-oxoisoindolin-2-yl)hexanamide], for which, where the note is “2.5 μM”, the fold induction at 2.5 µM was 1.1. The fold induction at 5 µM (5.0 μM) amounted to 1.1. Also, the fold induction at 10 µM (10 μM) is 1.7. For the same compound, the fold induction at 20 µM (20 μM) stood at 1.6.
As to `COc1ccc(-c2ccc3c(c2)CN(Cc2ccc(C(=O)Nc4ccccc4N)cc2)C3=O)cc1OC` [Example 64, N-(2-aminophenyl)-4-((5-(3,4-dimethoxyphenyl)-1-oxoisoindolin-2-yl)methyl)benzamide], the fold induction at 2.5 µM (2.5 μM) amounted to 11.3. In addition, for the setting “5.0 μM”, the fold induction at 5 µM stood at 10.7. Also, the fold induction at 10 µM (10 μM) worked out at 10.1. For the same compound, the fold induction at 20 µM (20 μM) was found to be 9.5.
For the compound `Nc1ccccc1NC(=O)c1ccc(CN2Cc3cc(-c4cc(F)cc(F)c4)ccc3C2=O)cc1` [Example 60, N-(2-aminophenyl)-4-((5-(3,5-difluorophenyl)-1-oxoisoindolin-2-yl)methyl)benzamide], the fold induction at 2.5 µM (2.5 μM) came out at 5.4. For the same compound, the fold induction at 5 µM (5.0 μM) turned out to be 5.9. Besides, the fold induction at 10 µM (10 μM) is 7. Moreover, for the setting “20 μM”, the fold induction at 20 µM was 8.6.
For `COc1cc2c(c(-c3ccc(C(F)(F)F)cc3)c1OC)CN(CCCCCC(=O)Nc1ccccc1N)C2=O` [Example 35, N-(2-aminophenyl)-6-(4-(4-(trifluoromethyl)phenyl)-5,6-dimethoxy-1-oxoisoindolin-2-yl)hexanamide] the same measures were 2.9, 6.7, 14.2 and 22.3.
Regarding `COc1cc2c(c(-c3cccnc3)c1OC)CN(CCCCCC(=O)Nc1ccccc1N)C2=O` [Example 33, N-(2-aminophenyl)-6-(5,6-dimethoxy-1-oxo-4-(pyridin-3-yl)isoindolin-2-yl)hexanamide], the fold induction at 2.5 µM (2.5 μM) was determined as 1.8. Moreover, the fold induction at 5 µM (5.0 μM) was found to be 3.4. Moreover, the fold induction at 10 µM (10 μM) was 10. Moreover, for the setting “20 μM”, the fold induction at 20 µM came to 29.
For the compound `Cc1c(C(=O)NCc2ccc(C(=O)Nc3ccccc3N)cc2)cccc1-c1cccnc1` [Example 71, N-(2-aminophenyl)-4-((2-methyl-3-(3-pyridinyl)benzamido)methyl)benzamide], the fold induction at 2.5 µM (2.5 μM) was determined as 18.7. Besides, the fold induction at 5 µM (5.0 μM) was 34.8. Also, the fold induction at 10 µM (10 μM) worked out at 36.5. In addition, the fold induction at 20 µM (20 μM) turned out to be 32.7.
For the compound `COc1cc(C(=O)NCc2ccc(C(=O)Nc3ccccc3N)cc2)c(C)c(-c2ccccc2)c1OC` [Example 74, N-(2-aminophenyl)-4-((2-methyl-3-phenyl-4,5-dimethoxy-benzamido)methyl)benzamide], the fold induction at 2.5 µM (2.5 μM) came to 25.1. Besides, the fold induction at 5 µM (5.0 μM) worked out at 31.1. The fold induction at 10 µM (10 μM) is 38.5. Besides, the fold induction at 20 µM (20 μM) came out at 38.9.
As to `O=C(CCCCCN1Cc2c(cccc2-c2ccc(C(F)(F)F)cc2)C1=O)NO` [Example 44, 6-(4-(4-(trifluoromethyl)phenyl)-1-oxoisoindolin-2-yl)-N-hydroxyhexanamide], the fold induction at 2.5 µM (2.5 μM) was 1.2. Further, where the note is “5.0 μM”, the fold induction at 5 µM stood at 1.2. Moreover, the fold induction at 10 µM (10 μM) was determined as 1.3. Moreover, the fold induction at 20 µM (20 μM) amounted to 1.4.
With `COc1ccc(-c2ccc3c(c2)CN(Cc2ccc(C(=O)Nc4ccccc4N)cc2)C3=O)cc1` [Example 63], the “luciferase activity relative to control set as 1” value came out at 8.3 fold (2.5 μM), 10.3 fold (5.0 μM), 13.1 fold (10 μM) and 14.2 fold (20 μM).
With `N#Cc1ccc(-c2ccc3c(c2)CN(Cc2ccc(C(=O)Nc4ccccc4N)cc2)C3=O)cc1` [Example 65, N-(2-aminophenyl)-4-[5-(4-cyanophenyl)-1-oxo-2,3-dihydro-1H-isoindol-2-yl]methylbenzamide], for the setting “2.5 μM”, the fold induction at 2.5 µM came to 12.9. For the same compound, the fold induction at 5 µM (5.0 μM) was 15.7. Moreover, under “10 μM”, the fold induction at 10 µM amounted to 13.5. The fold induction at 20 µM (20 μM) turned out to be 11.4.
In the case of `CC(C)(C)c1ccc(-c2cccc3c2CN(Cc2ccc(C(=O)Nc4ccccc4N)cc2)C3=O)cc1` [Example 28, 4-((4-(4-tert-butylphenyl)-1-oxoisoindolin-2-yl)methyl)-N-(2-aminophenyl)benzamide], the fold induction at 2.5 µM (2.5 μM) amounted to 4.6. Moreover, the fold induction at 5 µM (5.0 μM) was 7.7. Further, for the setting “10 μM”, the fold induction at 10 µM worked out at 14.3. In addition, the fold induction at 20 µM (20 μM) stood at 23.7.
For the compound `COc1cc(C(=O)NCc2ccc(C(=O)Nc3ccccc3N)cc2)c(C)c(Br)c1OC` [Example 73, N-(2-aminophenyl)-4-((3-bromo-4,5-dimethoxy-2-methylbenzamido)methyl)benzamide], the fold induction at 2.5 µM (2.5 μM) is 24.2. Besides, the fold induction at 5 µM (5.0 μM) amounted to 32.3. For the same compound, the fold induction at 10 µM (10 μM) was determined as 30.8. For the same compound, the fold induction at 20 µM (20 μM) turned out to be 25.9.
For `COc1cc2c(c(-c3ccccc3)c1OC)CN(CCCCCC(=O)Nc1ccccc1N)C2=O` [Example 31, N-(2-aminophenyl)-6-(5,6-dimethoxy-1-oxo-4-phenylisoindolin-2-yl)hexanamide] the same measures were 12.2, 21.2, 26.2 and 29.3.
With `COc1ccc(-c2ccc3c(c2)CN(CCCCCC(=O)NO)C3=O)c(OC)c1` [Example 50, N-hydroxy-6-(5-(2,4-dimethoxyphenyl)-1-oxoisoindolin-2-yl)hexanamide], the fold induction at 2.5 µM (2.5 μM) is 1.9. The fold induction at 5 µM (5.0 μM) is 5. Moreover, under “10 μM”, the fold induction at 10 µM was 22.1. Also, where the note is “20 μM”, the fold induction at 20 µM was found to be 42.7.
For `Nc1ccccc1NC(=O)c1ccc(CN2Cc3cc(-c4ccc(C(F)(F)F)cc4)ccc3C2=O)cc1` [Example 59, N-(2-aminophenyl)-4-((5-(4-(trifluoromethyl)phenyl)-1-oxoisoindolin-2-yl)methyl)benzamide] the same measures were 3.3, 4.5, 4.1 and 3.8.
For `COc1ccc(-c2ccc(C(=O)NCCCCCC(=O)Nc3ccccc3N)cc2C)c(OC)c1` [Example 87, N-(5-(2-aminophenylcarbamoyl)pentyl)-3-methyl-4-(2,4-dimethoxyphenyl)-benzamide] the same measures were 1.7, 2.6, 5.6 and 8.5.
With `NC(=O)c1cccc(-c2cccc3c2CN(Cc2ccc(C(=O)Nc4ccccc4N)cc2)C3=O)c1` [Example 26, 3-[2-(4-[(2-aminophenyl)carbamoyl]phenylmethyl)-1-oxo-2,3-dihydro-1H-isoindol-4-yl]benzamide], the fold induction at 2.5 µM (2.5 μM) came out at 1.6. Also, the fold induction at 5 µM (5.0 μM) amounted to 2.3. Moreover, the fold induction at 10 µM (10 μM) came out at 4.4. The fold induction at 20 µM (20 μM) was 18.4.
Consider `Nc1ccccc1NC(=O)CCCCCN1Cc2c(Br)cccc2C1=O` [Example 36, N-(2-aminophenyl)-6-(4-bromo-1-oxoisoindolin-2-yl)hexanamide], for which the fold induction at 2.5 µM (2.5 μM) was 2.1. For the same compound, the fold induction at 5 µM (5.0 μM) came to 3. The fold induction at 10 µM (10 μM) was found to be 8. In addition, the fold induction at 20 µM (20 μM) came to 13.
For `Cc1c(C(=O)NCc2ccc(C(=O)Nc3ccccc3N)cc2)cccc1-c1cncnc1` [Example 70, N-(2-aminophenyl)-4-((2-methyl-3-(5-pyrimidinyl)benzamido)methyl)benzamide] the same measures were 8.9, 20.6, 30.1 and 40.2.
As to `COc1ccc(-c2ccc3c(c2)CN(CCCCCC(=O)NO)C3=O)cc1OC` [Example 51, N-hydroxy-6-(5-(3,4-dimethoxyphenyl)-1-oxoisoindolin-2-yl)hexanamide], where the note is “2.5 μM”, the fold induction at 2.5 µM is 1.2. For the same compound, for the setting “5.0 μM”, the fold induction at 5 µM was determined as 2.1. Further, where the note is “10 μM”, the fold induction at 10 µM worked out at 10.4. Further, the fold induction at 20 µM (20 μM) was determined as 26.4.
For `COc1cc(C(=O)NCc2ccc(C(=O)Nc3ccccc3N)cc2)c(C)c(-c2cccc(N)c2)c1OC` [Example 77, N-(2-aminophenyl)-4-((3-(3-aminophenyl)-4,5-dimethoxy-2-methyl-benzamido)methyl)benzamide] the same measures were 4.9, 11, 24.5 and 33.5.
Turning to `CC(=O)Nc1cccc(-c2cccc3c2CN(Cc2ccc(C(=O)Nc4ccccc4N)cc2)C3=O)c1` [Example 23, N-(2-aminophenyl)-4-[4-(3-acetamidophenyl)-1-oxo-2,3-dihydro-1H-isoindol-2-yl]methylbenzamide], for the setting “2.5 μM”, the fold induction at 2.5 µM worked out at 3.9. Also, the fold induction at 5 µM (5.0 μM) stood at 5.1. The fold induction at 10 µM (10 μM) turned out to be 18.1. Moreover, the fold induction at 20 µM (20 μM) was 33.2.
On to `Nc1ccccc1NC(=O)c1ccc(CN2Cc3cc(-c4cncnc4)ccc3C2=O)cc1` [Example 58, N-(2-aminophenyl)-4-((1-oxo-5-(pyrimidin-5-yl)isoindolin-2-yl)methyl)benzamide], for which the fold induction at 2.5 µM (2.5 μM) stood at 11.7. For the setting “5.0 μM”, the fold induction at 5 µM was determined as 17.1. The fold induction at 10 µM (10 μM) was 21.6. The fold induction at 20 µM (20 μM) came out at 21.6.
As for `COc1ccc(-c2cccc3c2CN(Cc2ccc(C(=O)Nc4ccccc4N)cc2)C3=O)cc1OC` [Example 16, N-(2-aminophenyl)-4-((4-(3,4-dimethoxyphenyl)-1-oxoisoindolin-2-yl)methyl)benzamide], the fold induction at 2.5 µM (2.5 μM) amounted to 12.2. Besides, where the note is “5.0 μM”, the fold induction at 5 µM was found to be 12.3. Besides, the fold induction at 10 µM (10 μM) was 8.5. For the same compound, the fold induction at 20 µM (20 μM) worked out at 9.2.
